A short description of data set [1]: Metabolic stability in cynomolgus monkey liver microsomes (CLM). The data set is classed as in vitro ADME, cynomolgus monkeys. Particulars: for half-life at 1 μM / microsomal CLint at 1 μM: male, cynomolgus monkey, pooled cynomolgus monkey liver microsomes, pH 7.4, 1 μM compound, 0.50 mg protein/mL, NADPH. Here is the method:
CLM Stability. Pooled CLM from male cynomolgus monkeys (Corning 452413) were used. Microsomal incubations were carried out in multi-well plates. Liver microsomal incubation medium consisted of PBS (100 mM, pH 7.4), MgCl2 (1 mM), and NADPH (1 mM), with 0.50 mg of liver microsomal protein per mL. Control incubations were performed by replacing the NADPH-cofactor system with PBS. Test compounds (1 μM, final solvent concentration 1.0%) were incubated with microsomes at 37° C. with constant shaking. Six time points over 60 minutes were analyzed, with 60 μL aliquots of the reaction mixture being drawn at each time point. The reaction aliquots were stopped by adding 180 μL of cold (4° C.) acetonitrile containing 200 ng/mL tolbutamide and 200 ng/mL labetalol as internal standards (IS), followed by shaking for 10 minutes, and then protein sedimentation by centrifugation at 4,000 rpm for 20 minutes at 4° C. Supernatant samples (80 μL) were diluted with water (240 μL) and analyzed for parent compound remaining using a fit-for-purpose liquid chromatography-tandem mass spectrometry (LC-MS/MS) method.
Data Analysis. The elimination constant (kel), half-life (t1/2) and intrinsic clearance (Clint) were determined in a plot of […] versus time, using linear regression analysis.
In general terms: Liver microsomes are a subcellular fraction often used to study metabolism.

Data set [2] in a line: Oral bioavailability in mice, Method B (plasma and brain PK). To be noted: for half-life / Cmax / AUC(0-inf): male, C57BL/6; for half-life / Cmax / AUC(0-inf) / AUC0-inf (iv) / AUC0-inf (po) / F: Method B; for AUC(0-inf) / AUC0-inf (iv) / AUC0-inf (po): values represent AUC0-last; for F: 1 mg/kg. Type of data set: in vivo, C57BL/6 mice. As for the experimental part: Animals. Male C57BL/6 mice were used in these studies. Animals were randomly assigned to treatment groups and were fasted for 4 h before dosing.
Drugs. Test compounds were dissolved in a vehicle consisting of normal saline (for compounds used as the HCl salt) or normal saline slightly acidified with aq. HCl (for freebase compounds). They were then administered intravenously (iv) or orally (po) at a dose of 1 or 10 mg/kg (calculated based on freebase), as indicated, and at a volume of 5 mL/kg body weight. Compounds were tested as the racemates or pure enantiomers, as indicated.
(§1) Sample Collection and Bioanalysis. Blood samples (approximately 60 μL) were collected under light isoflurane anesthesia (Surgivet®) from the retro orbital plexus at 0.08, 0.25, 0.5, 1, 2, 4, 8, and 24 h (4 animals per time point). Immediately after blood collection, plasma was harvested by centrifugation at 4,000 rpm for 10 min at 4° C. and samples were stored at −70±10° C. until bioanalysis. Following blood collection, animals were immediately sacrificed, the abdominal vena-cava was cut open, and the whole body was perfused from the heart using 10 mL of normal saline, and brain samples were collected from all animals. After isolation, brain samples were rinsed three times in ice-cold normal saline (for 5-10 seconds/rinse using ˜5-10 mL, normal saline in disposable petri dish for each rinse) and dried on blotting paper. Brain samples were homogenized using ice-cold phosphate-buffered saline (pH 7.4). Total homogenate volume was three times the tissue weight. All homogenates were stored at −70±10° C. until bioanalysis. For bioanalysis, 25 μL aliquots of plasma/brain study samples or spiked plasma/brain calibration standards were added to individual pre-labeled micro-centrifuge tubes followed by 100 μL of an internal standard solution (glipizide, 500 ng/mL in acetonitrile) except for blanks, where 100 μL of acetonitrile was added. Samples were vortexed for 5 minutes and then centrifuged for 10 minutes at 4,000 rpm at 4° C. Following centrifugation, 100 μL of each clear supernatant was transferred to a 96 well plate and analyzed with a fit-for-purpose LC-MS/MS method, with authentic samples of each analyte used for calibration and identification.
(§2) Data Analysis. Pharmacokinetic parameters were estimated using the non-compartmental analysis tool of Phoenix® WinNonlin software (Ver 8.0).

A short description of data set [3]: Comparative metabolism/PK of 2R and deuterated 7R in rats after oral administration. Type of data set: in vivo, Sprague Dawley rats. Particulars: for concentration at 0.083 h / concentration at 0.25 h / concentration at 0.5 h / concentration at 1 h / concentration at 2 h / concentration at 4 h: oral; for concentration at 0.083 h: 0.083 h after 10 mg/kg po of 2R or 7R; for concentration at 0.25 h: 0.25 h after 10 mg/kg po of 2R or 7R; for concentration at 0.5 h: 0.5 h after 10 mg/kg po of 2R or 7R; for concentration at 1 h: 1 h after 10 mg/kg po of 2R or 7R; for concentration at 2 h: 2 h after 10 mg/kg po of 2R or 7R; for concentration at 4 h: 4 h after 10 mg/kg po of 2R or 7R. As for the experimental part:
Animals. Male Sprague Dawley rats were used in these studies. Animals were randomly assigned to treatment groups and were fasted for 4 h before dosing.
Drugs. Test compounds 2R and 7R were dissolved in a vehicle consisting of normal saline. They were then administered orally (po) at a dose of 10 mg/kg (calculated based on freebase), and at a volume of 5 mL/kg body weight.
as §1, with “mL” for “mL,”, “7.4)” for “7.4).”, “identification. Concentrations of parent compound (2R or 7R) and metabolite 1R were determined in all samples.” for “identification.”
as §2

Where [4] appears, read: mouse brain, 1 mg/kg iv, read-out: t1/2 (iv).
Setting [5] is: mouse plasma, 1 mg/kg iv, read-out: t1/2 (iv).
The mark [6] stands for this setting: mouse plasma, 1 mg/kg iv, read-out: AUC0-inf (iv) (converted).
The mark [7] stands for this setting: mouse plasma, 1 mg/kg po, read-out: t1/2 (po).
[8] abbreviates: mouse plasma, 1 mg/kg po, read-out: AUC0-inf (po) (converted).
Where [9] appears, read: mouse brain, calculated based on brain exposure (AUC0-last).
The mark [10] stands for this setting: mouse plasma, based on AUC0-last.
[11] abbreviates: male, Sprague Dawley, rat, brain, 10 mg/kg, rat brain, read-out: Mean brain concentration.
The mark [12] stands for this setting: mouse brain, 1 mg/kg po, read-out: t1/2 (po).
[13] abbreviates: male, Sprague Dawley, rat, plasma, 10 mg/kg, rat plasma, read-out: Mean plasma concentration.
Setting [14] is: rat brain after 10 mg/kg po of 2R or 7R, parent or metabolite 1R as labelled.

Each structure is given as a SMILES string. Like-named read-outs stand apart in the source and are kept apart here.

Results on three molecules are retold here after patent US20240300886A1, “ARYLCYCLOHEXYLAMINE DERIVATIVES AND THEIR USE IN THE TREATMENT OF PSYCHIATRIC DISORDERS” (GILGAMESH PHARMACEUTICALS, INC., priority 2021, published 2024).

Molecule `N[C@]1(c2ccc(F)cc2)CCCCC1=O` [Compound 1S, (S)-2-amino-2-(4-fluorophenyl)cyclohexan-1-one] came in with a half-life at 1 μM in data set [1] of over 145 min. In data set [1], this molecule showed a microsomal CLint at 1 μM of under 9.6 µL/min/mg. For the same molecule, the half-life in data set [2] (setting [4]) is 36.6 min; in data set [2] (setting [5]), 86.4 min; in data set [2] (setting [7]) it was 82.2 min. The Cmax in data set [2] (mouse brain, 1 mg/kg po) stood at 82.2 ng/g; in data set [2] (mouse plasma, 1 mg/kg po), 394 ng/mL. Also, the AUC(0-inf) is 501 ng·h/mL in data set [2] (setting [6]) and 470 ng·h/mL in data set [2] (setting [8]). Also, the “AUC0-inf (iv)” value in data set [2] (mouse brain, 1 mg/kg iv) is 14,776 ng*min/g. Also, the “AUC0-inf (po)” value in data set [2] (mouse brain, 1 mg/kg po) is 6,557 ng*min/g. The F is listed as 44% in data set [2] (setting [9]) and 94% in data set [2] (setting [10]).
In the case of `CN[C@]1(c2ccc(F)cc2)CCCCC1=O` [Compound 2S, (S)-2-(4-fluorophenyl)-2-(methylamino)cyclohexan-1-one], in data set [1], the half-life at 1 μM was found to be 38.3 min and the microsomal CLint at 1 μM was determined as 36.1 µL/min/mg. Further, in data set [3] (setting [11]), the concentration at 0.083 h was determined as 43 ng/g, the concentration at 0.25 h worked out at 1900 ng/g, the concentration at 0.5 h was 2600 ng/g and the concentration at 1 h turned out to be 1510 ng/g. Also, in data set [3] (setting [11]), the concentration at 2 h worked out at 521 ng/g and the concentration at 4 h stood at 155 ng/g. The half-life in data set [2] (setting [4]) was found to be 21.6 min. In addition, in data set [2] (mouse brain, 1 mg/kg po), the concentration peaked (Cmax) at 80.4 ng/g and the “AUC0-inf (po)” value is 4,264 ng*min/g. In data set [2] (setting [12]), the half-life amounted to 42 min. Also, the half-life in data set [2] (setting [5]) worked out at 54.6 min. Also, the AUC(0-inf) in data set [2] (setting [6]) is 119 ng·h/mL. Further, the Cmax in data set [2] (mouse plasma, 1 mg/kg po) amounted to 51.7 ng/mL. For the same molecule, the half-life in data set [2] (setting [7]) was 50.4 min. Besides, the AUC(0-inf) in data set [2] (setting [8]) was 46.6 ng·h/mL. The “AUC0-inf (iv)” value in data set [2] (mouse brain, 1 mg/kg iv) was 21,532 ng*min/g. In addition, in data set [2] (setting [9]), the F is listed as 20%. Further, the F in data set [2] (setting [10]) was found to be 39%.
`CN[C@@]1(c2ccc(F)cc2)CCCCC1=O` [Compound 2R, (R)-2-(4-fluorophenyl)-2(methylamino)cyclohexan-1-one]: in data set [1], the “stability in CLM (in words)” value is “substantially more stable”, the half-life at 1 μM was determined as 62.3 min and the microsomal CLint at 1 μM turned out to be 22.2 µL/min/mg. In data set [3] (male, Sprague Dawley, rat, brain, po, 10 mg/kg, rat brain after 10 mg/kg po of 2R or 7R, parent or metabolite 1R as labelled, read-out: t1/2 (brain)), the half-life worked out at 71 min. In addition, in data set [3] (setting [13]), the concentration at 0.083 h was 37 ng/mL, the concentration at 0.25 h turned out to be 760 ng/mL, the concentration at 0.5 h stood at 850 ng/mL and the concentration at 1 h was determined as 497 ng/mL. In data set [3] (setting [13]), the concentration at 2 h worked out at 142 ng/mL and the concentration at 4 h amounted to 42 ng/mL. Besides, the Cmax in data set [3] (male, Sprague Dawley, rat, plasma, po, 10 mg/kg, rat plasma after 10 mg/kg po of 2R or 7R, parent or metabolite 1R as labelled) came to 850 ng/mL. Further, the AUC(0-t) in data set [3] (male, Sprague Dawley, rat, plasma, po, 10 mg/kg, rat plasma after 10 mg/kg po of 2R or 7R, parent or metabolite 1R as labelled, read-out: AUC0-last (plasma) (converted)) is 1200 ng·h/mL. Besides, the half-life in data set [3] (male, Sprague Dawley, rat, plasma, po, 10 mg/kg, rat plasma after 10 mg/kg po of 2R or 7R, parent or metabolite 1R as labelled, read-out: t1/2 (plasma)) was 70 min. In data set [3] (setting [14]), the “AUC0-last (brain)” value came out at 227268 ng·min/g and the “Cmax (brain)” value is given as 2599 ng/g. The half-life in data set [2] (setting [4]) worked out at 23.4 min. For the same molecule, in data set [2] (mouse brain, 1 mg/kg po), the highest level (Cmax) was 177 ng/g and the “AUC0-inf (po)” value is reported as 5,890 ng*min/g. Moreover, in data set [2] (setting [12]), the half-life is 36 min. For the same molecule, in data set [2] (setting [5]), the half-life came out at 45 min. The AUC(0-inf) in data set [2] (setting [6]) is 96.3 ng·h/mL. The same molecule showed a Cmax in data set [2] (mouse plasma, 1 mg/kg po) of 53.6 ng/mL. Moreover, the half-life in data set [2] (setting [7]) turned out to be 29.4 min. Further, in data set [2] (setting [8]), the AUC(0-inf) was 38.8 ng·h/mL. For the same molecule, the “brain exposure after oral administration compared to enantiomer 2S” value in data set [2] (mice) is given as “substantially higher brain exposure”. The “AUC0-inf (iv)” value in data set [2] (mouse brain, 1 mg/kg iv) is listed as 17,791 ng*min/g. Also, the F in data set [2] (setting [9]) is 33%. In data set [2] (setting [10]), this molecule gave an F of 40%.

A word on the microsomal CLint: it is a measure of how fast metabolising enzymes remove a compound, apart from limits set by blood flow. As usually defined, the Cmax is the highest concentration seen after dosing.
